Assay results taken from PMC7802074, “Azanitrile Inhibitors of the SmCB1 Protease Target Are Lethal to Schistosoma mansoni: Structural and Mechanistic Insights into Chemotype Reactivity” (ACS Infectious Diseases, 2020).
Where “and” joins values, the source holds several entries; their conditions need not be identical. Equal values may be shown once. Read-outs that look alike come from different tables or passages of the source.

Tests used:
[1] = Cytotoxicity, XTT test, HUVEC; type: cell-based; conditions: human, % viability vs. untreated cells, read-out: Cell line viability after 72 h
Protocol: (§1) T able S4. […]
(§2) Cell line viability after 72 h (%)a
(§3) Inhibitor 1 µM 10 µM 1 µM 10 µM
(§4) aCytotoxicity of the inhibitors towards human cell lines are expressed as % viability vs. untreated cells. Cells were treated with
(§5) the indicated concentration of the compounds for 72 h and assayed by means of the XTT test (as described previously 12).
(§6) Standard deviation values were within 10% of the mean of tetraplicates. […]

[2] = biological target: recombinant SmCB1 (Schistosoma mansoni, UniProt Q8MNY2, T185A/T300A); test: SmCB1 kinetic inhibition assay with fluorogenic substrate Cbz-Phe-Arg-AMC; type: biochemical; conditions: substrate Cbz-Phe-Arg-AMC; for SmCB1 inhibition k2nd (second-order rate constant): slow-binding azadipeptide nitriles
Sequence of recombinant SmCB1 (Q8MNY2 87-340 T185A/T300A): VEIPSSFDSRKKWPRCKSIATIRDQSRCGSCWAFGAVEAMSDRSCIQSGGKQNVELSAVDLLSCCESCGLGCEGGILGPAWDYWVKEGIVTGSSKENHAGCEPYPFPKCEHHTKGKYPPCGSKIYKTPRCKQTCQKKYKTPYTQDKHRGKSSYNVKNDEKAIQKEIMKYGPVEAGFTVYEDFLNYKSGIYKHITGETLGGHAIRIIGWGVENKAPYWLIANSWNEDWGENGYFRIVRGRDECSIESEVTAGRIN
Protocol: Inhibition measurements were performed in triplicates in 96-well microplates (100 μL assay volume) at 37 °C. SmCB1 (20–40 pM) was added to a mixture of the fluorogenic substrate Cbz-Phe-Arg-AMC (20 μM) and an inhibitor (0–100 μM) in 0.1 M sodium acetate, pH 5.5, containing 2.5 mM dithiothreitol and 0.1% PEG 6000. The substrate hydrolysis was monitored in an Infinite M1000 microplate reader (Tecan, Männedorf, Switzerland) at excitation and emission wavelengths of 360 and 465 nm, respectively, for up to 15 and 60 min for fast- and slow-binding inhibitors, respectively. […] For slow-binding inhibitors, an observed first-order rate constant kobs was calculated at each inhibitor concentration by fitting the progress curve to the equation P = vst + (vi – vs)(1 – […])/kobs + d, where P is the product formation, vs is the steady-state velocity, t is the reaction time, vi is the initial velocity, and d is the offset. The inhibition constant Ki′ was determined by nonlinear regression using the equation vs/v0 = 1/(1 + [I]/Ki′). The true inhibition constants Ki were then calculated using the equation Ki = Ki′/(1 + [S]/Km), where [S] is the substrate concentration and Km is the Michaelis constant. The apparent second-order rate constant k2nd′ was determined by fitting to the linear equation kobs = k2nd′[I] + koff, where koff is the first-order rate constants for the dissociation of the enzyme–inhibitor complex and the true constant k2nd was calculated by the correction k2nd = k2nd′(1 + [S]/Km). […] In none of the assay systems did the final concentration of DMSO exceed 1.5%.

[3] = tested on: S. mansoni newly transformed schistosomula (NTS); test: Schistosome phenotypic assay; type: cell-based, Schistosoma mansoni; conditions: for Severity score Day 1 / Severity score Day 2 / Severity score Day 3 / Severity score Day 4: 10 μM inhibitor, scale 0 (no effect) to 4 (severe); for Severity score Day 1: 24 h; for Severity score Day 2: 48 h
Protocol: Newly transformed schistosomula (NTS) of S. mansoni were prepared by mechanically transforming infective larvae (cercariae) as described previously.[70],[71] NTS (200–300 parasites) were incubated in 200 μL of Basch Medium 169 containing 5% FBS, 100 U mL^–1 penicillin, and 100 μg mL^–1 streptomycin at 5% CO2 and 37 °C.[70],[72],[73] Inhibitors were added at the final concentration of 10 μM,[20],[69] and changes in phenotypes were observed every 24 h for up to 4 days. A constrained nomenclature of “descriptors” is used to record the multiple and dynamic changes in movement, shape, and translucence of which the schistosome parasite is capable (Table S3).[70] These descriptors are then converted into an ordinal “severity score” system from 0 (no effect) to 4 (maximum effect), which allows for the relative comparison of compound effects, as described.[74],[75] Images of NTS were captured using a Zeiss Axiovert 40 C inverted microscope (10× objective) and a Zeiss AxioCam MRc digital camera controlled by AxioVision 40 (v. 4.8.1.0) software.

[4] = Cytotoxicity, XTT test, HepG2; type: cell-based; conditions: human, % viability vs. untreated cells, read-out: Cell line viability after 72 h; for viability at 72 h, 1 µM: HepG2, 1 µM; for viability at 72 h, 10 µM: HepG2, 10 µM
Protocol: as §1, §2, §3, §4, §5, §6

[5] = SmCB1 inhibition Ki, kinetic activity assay, pH 5.5, 37 °C

Compound | viability at 72 h, 1 µM [1] [%] | viability at 72 h, 10 µM [1] [%] | Ki [2, 5] [nM] | SmCB1 inhibition k2nd (second-order rate constant) [2] | Descriptors Day 1 (phenotypic changes) ([3]; 10 µM inhibitor) | Descriptors Day 2 (phenotypic changes) ([3]; 10 µM inhibitor) | Severity score Day 1 [3] | Severity score Day 2 [3] | Severity score Day 3 [3] | Severity score Day 4 [3] | viability at 72 h, 1 µM [4] [%] | viability at 72 h, 10 µM [4] [%] | Descriptors Day 3 (phenotypic changes) ([3]; 10 µM inhibitor) | Ki ([2]; Table S2, carbadipeptide nitriles, read-out: SmCB1 inhibition Ki) [nM] | Descriptors Day 4 (phenotypic changes) ([3]; 10 µM inhibitor)
CC(C)CC(NC(=O)NCc1ccccc1)C(=O)N(C)N(C)C#N (stereo not drawn) [Compound 3a] | 106 | 90 | 6.1 ± 0.7 | 20.4 10^3 M^-1 s^-1 and 20.4 ± 1.9 10^3 M^-1 s^-1 | R, Unc, Dark | Deg | 3 | 4 | 4 | 4 | 82 | 83 | – | – | –
CC(C)C[C@H](NC(=O)c1ccc(-c2noc(-c3cccs3)n2)cc1)C(=O)N(C)N(C)C#N [Compound 5a] | 91 | 66 | 4.8 ± 0.3 | 29.0 10^3 M^-1 s^-1 and 29.0 ±1.4 10^3 M^-1 s^-1 | Deg | Deg | 2 | 4 | 4 | 4 | 91 | 101 | – | – | –
CN(C(=O)[C@H](Cc1ccccc1)NC(=O)OCc1ccccc1)N(C#N)CCc1ccccc1 [Compound 8a] | 101 | 44 | 4.8 ± 0.2 | 5.2 10^3 M^-1 s^-1 and 5.2 ± 0.4 10^3 M^-1 s^-1 | Deg | – | 4 and 4/4 | 4 and 4/4 | 4 | 4 | 102 | 83 | – | – | –
CCCCCN(C#N)N(C)C(=O)[C@H](Cc1ccccc1)NC(=O)OCc1ccccc1 [Compound 9a] | 104 | 81 | 6.2 ± 0.5 | 2.1 10^3 M^-1 s^-1 and 2.1 ± 0.3 10^3 M^-1 s^-1 | Deg | Deg | 4 and 4/4 | 4 and 4/4 | 4 | 4 | 85 | 78 | – | – | –
CN(C#N)N(C)C(=O)[C@H](CC1CCCCC1)NC(=O)OCc1ccccc1 [Compound 11a] | 92 | 85 | 4.6 ± 0.5 | 32.7 ± 2.8 10^3 M^-1 s^-1 | R, Unc | Deg | 2 | 4 | 4 | 4 | 89 | 109 | Deg | – | –
N#CCNC(=O)[C@H](CC1CCCCC1)NC(=O)c1ccc(-c2noc(-c3cccs3)n2)cc1 [Gü2421] | – | – | – | – | R, S | R, S | 2 | 2 | 3 | 3 | – | – | R, S, Dark | 12 ± 4 | R, S, Dark
